Measurements: patent publication US20180214391A1, “USE OF CURCUMIN AND PHARMACEUTICALLY ACCEPTABLE SALT THEREOF” (TARGETPHARMA LABORATORIES (JIANDSU) CO., LTD., priority 2015, published 2018)

Tests used:
Assay type in all cases: in vivo, C57BL/6 female mice
[1] = system: T241-VEGF tumors; experiment: Antitumor animal model, subcutaneous T241-VEGF tumor: tumor volume and tumor weight; conditions: for final tumor volume compared with the control group / tumor weight compared with the control group: 0.1 ml/each, 14 days; for tumor weight compared with the control group: FIG. 1-B
Description: At present, conventional antitumor drugs are accompanied with toxic side effects while taking effect. In this experiment, we evaluated the antitumor effect of curcumin, and examined the toxicity of the drug by observing changes in animals' body weights after treatment. Given that the chemotherapy drug treatment and course of chemotherapy are closely related to the incident rates of antitumor associated syndrome and its severity, positive control in this experiment used the most advanced antitumor antibodies in the world as a control. […]-VEGF is a tumor model with rapid tumor growth and obvious symptom of tumor associated syndrome. We feed C57BL/6 female mice (SPF grade, 6-8 weeks old, manufactured by Shanghai Silaike Experimental Animal Co., Ltd.) for 2-3 days. The day before subcutaneous inoculation, body hair in back and neck was shaved with a shaving device for the preparation of subcutaneous inoculation of tumor cells. The tumor cells […]-VEGF were collected and washed twice with PBS. After resuspended with PBS and counted, the cells were diluted to 1×10^7 cells/ml with PBS and placed on ice ready for inoculation. Mice were anesthetized with 7% chloral hydrate, 0.1 ml/each, intraperitoneal injection. After the mice were completely anesthetized, the mice were subcutaneously inoculated with tumor cells […]-VEGF, 1×10^6/each, with 1 ml medical disposable syringes in the back and neck. Inoculated mice were randomly allocated (8 in each group), weighed, grouped and administered for treatment. In this experiment, curcumin (manufactured by Sigma, cat. no. […]) was dissolved to 1 mol/L with DMSO and diluted to 2.5 mM, 5 mM and 10 mM with 20% Tween-80 (mixed with PBS) before administration. Detailed information and administration plan is as follows: Control: 20% Tween-80, 0.1 ml/each; The low-dose of curcumin group (Curcumin-2.5 mM): 2.5 mM curcumin, 0.1 ml/each, continuous administration for 14 days; The medium-dose of curcumin group (Curcumin-5 mM): 5 mM curcumin, 0.1 ml/each, continuous administration for 14 days; The high-dose of curcumin group (Curcumin-10 mM): 10 mM Curcumin, 0.1 ml/each, continuous administration for 14 days; Positive control group (PC: anti-VEGF humanized monoclonal antibody, produced by Jiangsu […] Pharmaceutical Co., Ltd.): 2 mg/ml, 0.1 ml/each, twice a week, administration for 4 times. Mice were weighed up every other day. Measuring the tumor volume with vernier caliper every other day after tumor grew in the body. In order to further verify the antitumor effect of each dose of curcumin and its effect on liver and spleen, we handled and dissected the animals in each group the day after administration, got tumors, livers, spleens and kidneys, then weighed up all the tissues and stored them respectively.

[2] = system: anemia symptoms induced by the T241-VEGF tumor animal model; experiment: Blood analysis of anemia symptoms (RBC, HGB, HCT, PLT) in T241-VEGF tumor-bearing mice
Protocol: (§1) We feed C57BL/6 female mice (SPF grade, 6-8 weeks old, manufactured by Shanghai Silaike Experimental Animal Co., Ltd.) for 2-3 days. The day before subcutaneous inoculation, body hair in back and neck was shaved with a shaving device for the preparation of subcutaneous inoculation of tumor cells. The tumor cells T241-VEGF were collected and washed twice with PBS. After resuspended with PBS and counted, the cells were diluted to 1×10^7 cells/ml with PBS and placed on ice ready for inoculation. Mice were anesthetized with 7% chloral hydrate, 0.1 ml/each, intraperitoneal injection. After the mice were completely anesthetized, the mice were subcutaneously inoculated with tumor cells T241-VEGF, 1×10^6/each, with 1 ml medical disposable syringes in the back and neck. Inoculated mice were randomly allocated (8 in each group), weighed, grouped and administered for treatment. In this experiment, curcumin (manufactured by Sigma, cat. no. C1386-10G) was dissolved to 1 mol/L with DMSO and diluted to 2.5 mM, 5 mM and 10 mM with 20% Tween-80 (mixed with PBS) before administration. Detailed information and administration plan is as follows: Control: 20% Tween-80, 0.1 ml/each; The low-dose of curcumin group (Curcumin-2.5 mM): 2.5 mM curcumin, 0.1 ml/each, continuous administration for 14 days; The medium-dose of curcumin group (Curcumin-5 mM): 5 mM curcumin, 0.1 ml/each, continuous administration for 14 days; The high-dose of curcumin group (Curcumin-10 mM): 10 mM Curcumin, 0.1 ml/each, continuous administration for 14 days; Positive control group (PC: anti-VEGF humanized monoclonal antibody, produced by Jiangsu Simcere Pharmaceutical Co., Ltd.): 2 mg/ml, 0.1 ml/each, twice a week, administration for 4 times. Mice were weighed up every other day. Measuring the tumor volume with vernier caliper every other day after tumor grew in the body.
Handled the animals in each group the day after administration, weighed up, then collected blood (stored in 1.5 ml of EP tubes with 20 ul of 0.5M EDTA) after enucleation of the eyeballs and performed blood analysis. Blood samples were taken to evaluate the effect of curcumin on tumor associated syndrome—red blood cell (RBC), hemoglobin (HGB), hematocrit (HCT) and platelet count (PLT) in mice.

[3] = Body weight changes of T241-VEGF tumor-bearing mice after treatment (toxicity); conditions: low, medium and high dose of curcumin (2.5, 5, 10 mM, 0.1 ml/each, 14 days); consistent with normally fed animals
Description: At present, conventional antitumor drugs are accompanied with toxic side effects while taking effect. In this experiment, we evaluated the antitumor effect of curcumin, and examined the toxicity of the drug by observing changes in animals' body weights after treatment. Given that the chemotherapy drug treatment and course of chemotherapy are closely related to the incident rates of antitumor associated syndrome and its severity, positive control in this experiment used the most advanced antitumor antibodies in the world as a control. T241-VEGF is a tumor model with rapid tumor growth and obvious symptom of tumor associated syndrome.
We feed C57BL/6 female mice (SPF grade, 6-8 weeks old, manufactured by Shanghai Silaike Experimental Animal Co., Ltd.) for 2-3 days. The day before subcutaneous inoculation, body hair in back and neck was shaved with a shaving device for the preparation of subcutaneous inoculation of tumor cells. The tumor cells T241-VEGF were collected and washed twice with PBS. After resuspended with PBS and counted, the cells were diluted to 1×10^7 cells/ml with PBS and placed on ice ready for inoculation. Mice were anesthetized with 7% chloral hydrate, 0.1 ml/each, intraperitoneal injection. […]

[4] = system: liver enlargement and splenomegaly caused by T241-VEGF tumor; experiment: Liver and spleen coefficients of T241-VEGF tumor-bearing mice; conditions: vs tumor control group, p<0.05
Protocol: as §1, with “body. […]” for “body.”

[5] = curcumin low, medium and high dose, positive control 2 mg/ml

Structure (SMILES): COc1cc(/C=C/C(=O)CC(=O)/C=C/c2ccc(O)c(OC)c2)ccc1O [curcumin]
- final tumor volume compared with the control group ([1]; 2.5 mM curcumin): inhibited to a certain extent
- tumor weight compared with the control group ([1]; 5 mM curcumin): significantly different
- final tumor volume compared with the control group ([1]; 5 mM curcumin, p<0.01 or p<0.001): significantly different
- tumor weight compared with the control group ([1]; 10 mM curcumin): significantly different
- final tumor volume compared with the control group ([1]; 10 mM curcumin, p<0.01 or p<0.001): significantly different
- growth of T241-VEGF tumors ([1]; low, medium and high dose of curcumin (2.5, 5, 10 mM, 0.1 ml/each, 14 days), FIG. 1-A): can inhibit the growth
- platelet (PLT) compared with normal mice ([2]; curcumin at a dose of 10 mM): no statistical differences
- anemia symptoms of tumor-bearing mice compared with control group ([2]; curcumin low, medium and high dose (2.5, 5, 10 mM), positive control 2 mg/ml, FIG. 3): improved remarkably
- hematocrit (HCT) compared with normal mice [2, 5]: no statistical differences
- hemoglobin (HGB) compared with normal mice [2, 5]: no statistical differences
- red blood cell (RBC) compared with normal mice [2, 5]: no statistical differences
- body weight [3]: not reduced
- liver enlargement (liver coefficient) ([4]; 5 mM curcumin): significantly improve the liver enlargement
- liver enlargement (liver coefficient) ([4]; 10 mM curcumin): significantly improve the liver enlargement
- spleen enlargement (spleen coefficient) ([4]; 10 mM curcumin): significantly improve the spleen enlargement
